# Data as given in patent publication US10357477B2, “Anticancer compounds” (REGENTS OF THE UNIVERSITY OF MINNESOTA, priority 2016, dated 2019).
# Test system: MIA PaCa-2 cells
# Assay: Cell viability assay (MTT) in MIA PaCa-2 cells
# Type: cell-based
# Conditions: Homo sapiens, antiproliferative activity, 72 h
# Protocol: MIA PaCa-2 cells (CRL-1420, ATCC) were maintained in DMEM media supplemented with 10% FBS, 2.5% HS, 1% GlutaMAX, 1% sodium pyruvate, 100 U/mL penicillin, and 100 μg/mL streptomycin. Cell culture media and additives were purchased from Gibco. Cells were plated in 96-well plates at |1−2.5|×10^4 cells per well in the DMEM growth media. One microliter of a 2-fold serially diluted compound solution in DMSO (Sigma) starting at 20 mM (100 μM final concentration) was added to each well. The final volume in each well was 200 μL, yielding a final DMSO concentration of 0.5%. Control wells contained 0.5% DMSO (100% viability) or 25% DMSO (background) and all reactions were done in triplicate. The plate was incubated for 72 h at 37° C. in a 5% CO2/95% air humidified atmosphere.
# Measurement of cell viability was carried out using a modified method of Mosmann based on 3-(4,5-dimethylthiazol-2-yl)-2,5-diphenyltetrazolium bromide (MTT, Sigma). MTT solution was prepared fresh at 1 mg/mL in serum-free and phenol red-free RPMI 1640 media. After 200 μL of MTT solution was added to each well, the plate was incubated as described above for 3 h. The MTT solution was removed, and the formazan crystals were solubilized with 200 μL of isopropanol. The plate was read on a SpectraMax i3 spectrophotometer (Molecular Devices) at 570 nm for formazan and 650 nm for background subtraction. EC50 values were calculated by fitting the data in GraphPad Prism software. EC50 values were determined in triplicate.
row,Compound,EC50
1,"CNC(=O)c1cccc(Cn2nc(C)c(NC(=O)c3ccc(CNc4ccccc4)cc3)c2C)c1 [Compound C2, 3-((3,5-Dimethyl-4-(4-((phenylamino)methyl)benzamido)-1H-pyrazol-1-yl)methyl)-N-methylbenzamide]",17 µM
2,"CNC(=O)c1cccc(Cn2nc(C)c(NC(=O)c3ccc(COc4ccccc4[N+](=O)[O-])cc3)c2C)c1 [Compound D8a, 3-((3,5-Dimethyl-4-(4-((2-nitrophenoxy)methyl)benzamido)-1H-pyrazol-1-yl)methyl)-N-methylbenzamide]",11 µM
3,"CNC(=O)c1cccc(Cn2nc(C)c(NC(=O)c3ccc(COc4ccccn4)cc3)c2C)c1 [Compound G1, 3-((3,5-Dimethyl-4-(4-((pyridin-2-yloxy)methyl)benzamido)-1H-pyrazol-1-yl)methyl)-N-methylbenzamide]",> 100 µM
4,"CNC(=O)c1cc(Cn2nc(C)c(NC(=O)c3ccc(Oc4ccc(C(F)(F)F)cc4C)cc3)c2C)ccn1 [Compound E7b, 4-((3,5-Dimethyl-4-(4-(2-methyl-4-(trifluoromethyl)phenoxy)-benzamido)-1H-pyrazol-1-yl)methyl)-N-methylpicolinamide]",10 µM
5,"CNC(=O)c1cccc(Cn2nc(C)c(NC(=O)c3ccc(COc4cccc(C#N)c4)cc3)c2C)c1 [Compound D7b, 3-((4-(4-((3-Cyanophenoxy)methyl)benzamido)-3,5-dimethyl-1H-pyrazol-1-yl)methyl)-N-methylbenzamide]",10 µM
6,"CNC(=O)c1cccc(Cn2nc(C)c(NC(=O)c3ccc(COc4ccncc4)cc3)c2C)c1 [Compound G3, 3-((3,5-Dimethyl-4-(4-((pyridin-4-yloxy)methyl)benzamido)-1H-pyrazol-1-yl)methyl)-N-methylbenzamide]",99 µM

# More lines, now with the values ahead:
row,EC50,Compound
1,8.4 µM,"CNC(=O)c1cccc(Cn2nc(C)c(NC(=O)c3ccc(Oc4ccccc4)cc3)c2C)c1 [Compound E6a, 3-((3,5-Dimethyl-4-(4-phenoxybenzamido)-1H-pyrazol-1-yl)methyl)-N-methylbenzamide]"
2,8.3 µM,"CNC(=O)c1cccc(Cn2nc(C)c(NC(=O)c3ccc(CSc4ccccc4)cc3)c2C)c1 [Compound C1, 3-((3,5-Dimethyl-4-(4-((phenylthio)methyl)benzamido)-1H-pyrazol-1-yl)methyl)-N-methylbenzamide]"
3,10 µM,"CNC(=O)c1cccc(Cn2nc(C)c(NC(=O)c3ccc(COc4cccc([N+](=O)[O-])c4)cc3)c2C)c1 [Compound D8b, 3-((3,5-Dimethyl-4-(4-((3-nitrophenoxy)methyl)benzamido)-1H-pyrazol-1-yl)methyl)-N-methylbenzamide]"
4,6.1 µM,"CNC(=O)c1cccc(Cn2nc(C)c(NCc3ccc(COc4ccccc4)cc3)c2C)c1 [Compound B2, 3-((3,5-Dimethyl-4-((4-(phenoxymethyl)benzyl)amino)-1H-pyrazol-1-yl)methyl)-N-methylbenzamide]"
5,1.2 µM,"CNC(=O)c1cccc(Cn2nc(C)c(NC(=O)c3ccc(Oc4ccc(C(F)(F)F)cc4C)cc3)c2C)c1 [Compound E6c, 3-((3,5-Dimethyl-4-(4-(2-methyl-4-(trifluoromethyl)phenoxy)benzamido)-1H-pyrazol-1-yl)methyl)-N-methylbenzamide]"
6,6.4 µM,"Cc1nn(Cc2cccc(C(=O)Nc3ccccc3)c2)c(C)c1NC(=O)c1ccc(COc2ccccc2)cc1 [Compound A4d, 3-((3,5-Dimethyl-4-(4-(phenoxymethyl)benzamido)-1H-pyrazol-1-yl)methyl)-N-phenylbenzamide]"
7,9.4 µM,"CNC(=O)c1cc(Cn2nc(C)c(NC(=O)c3ccc(COc4ccc(C(F)(F)F)cc4C)nc3)c2C)ccn1 [Compound E5b, 4-((3,5-Dimethyl-4-(6-((2-methyl-4-(trifluoromethyl)phenoxy)methyl)nicotinamido)-1H-pyrazol-1-yl)methyl)-N-methylpicolinamide]"
8,9.1 µM,"CNC(=O)c1cccc(Cn2nc(C)c(NC(=O)c3ccc(COc4ccc5ccccc5c4)cc3)c2C)c1 [Compound D1, 3-((3,5-Dimethyl-4-(4-((naphthalen-2-yloxy)methyl)benzamido)-1H-pyrazol-1-yl)methyl)-N-methylbenzamide]"
